Measured values from PubChem BioAssay AID248 (DTP/NCI, 2004).
Inconclusive results and toxic doses are left out.

Test system: L1210 leukemia ip in BDF1 mice, survival T/C
Assay: NCI In Vivo Anticancer Drug Screen. Data for tumor model L1210 Leukemia (intraperitoneal) in B6D2F1 (BDF1) mice
Conditions: higher = longer survival
Procedure, shortened: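 Transplanted-tumor mice were given test agent; controls received vehicle only. Survival readings from the two groups were divided (treated over control).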

[1] = endpoint: mean survival time, dose: 100.0 mg/kg/injection, schedule: Q04DX002 (ip), vehicle: saline with Tween-80
[2] = endpoint: mean survival time, dose: 200.0 mg/kg/injection, schedule: Q04DX002 (ip), vehicle: saline with Tween-80
[3] = endpoint: mean survival time, dose: 100.0 mg/kg/injection, schedule: Q01DX001 (ip), vehicle: carboxymethylcellulose (CMC)
[4] = endpoint: mean survival time, dose: 200.0 mg/kg/injection, schedule: Q01DX001 (ip), vehicle: carboxymethylcellulose (CMC)
[5] = endpoint: mean survival time, dose: 400.0 mg/kg/injection, schedule: Q01DX001 (ip), vehicle: carboxymethylcellulose (CMC)
[6] = endpoint: mean survival time, dose: 100.0 mg/kg/injection, schedule: Q01DX001 (ip), vehicle: Klucel (hydroxypropylcellulose) (HPC)
[7] = endpoint: mean survival time, dose: 200.0 mg/kg/injection, schedule: Q01DX001 (ip), vehicle: Klucel (hydroxypropylcellulose) (HPC)
[8] = endpoint: mean survival time, dose: 400.0 mg/kg/injection, schedule: Q01DX001 (ip), vehicle: Klucel (hydroxypropylcellulose) (HPC)
[9] = endpoint: mean survival time, dose: 100.0 mg/kg/injection, schedule: Q01DX001 (ip), vehicle: saline
[10] = endpoint: mean survival time, dose: 200.0 mg/kg/injection, schedule: Q01DX001 (ip), vehicle: saline
[11] = endpoint: mean survival time, dose: 400.0 mg/kg/injection, schedule: Q01DX001 (ip), vehicle: saline
[12] = endpoint: mean survival time, dose: 100.0 mg/kg/injection, schedule: Q04DX003 (ip), vehicle: saline with Tween-80
[13] = endpoint: mean survival time, dose: 200.0 mg/kg/injection, schedule: Q04DX003 (ip), vehicle: saline with Tween-80
[14] = endpoint: mean survival time, dose: 400.0 mg/kg/injection, schedule: Q04DX003 (ip), vehicle: saline with Tween-80
[15] = endpoint: mean survival time, dose: 100.0 mg/kg/injection, schedule: Q01DX009 (ip), vehicle: saline with Tween-80
[16] = endpoint: mean survival time, dose: 15.0 mg/kg/injection, schedule: Q04DX003 (ip), vehicle: saline

N#CC(C#N)=CN1CCOCC1
T/C [1]: 87 % of control | T/C [2]: 87 % of control

CN(C)N=Nc1cccc(C(N)=O)c1
T/C (endpoint: mean survival time, dose: 5.0 mg/kg/injection, schedule: Q01DX009 (ip), vehicle: Klucel (hydroxypropylcellulose) (HPC)): 104 % of control | T/C (endpoint: mean survival time, dose: 10.0 mg/kg/injection, schedule: Q01DX009 (ip), vehicle: Klucel (hydroxypropylcellulose) (HPC)): 115 % of control | T/C (endpoint: mean survival time, dose: 20.0 mg/kg/injection, schedule: Q01DX009 (ip), vehicle: Klucel (hydroxypropylcellulose) (HPC)): 121 % of control | T/C (endpoint: median survival time, dose: 39.0 mg/kg/injection, schedule: Q01DX009 (ip), vehicle: steriod suspending solution): 150 % of control | T/C (endpoint: median survival time, dose: 65.0 mg/kg/injection, schedule: Q01DX001 (ip), vehicle: steriod suspending solution): 105 % of control | T/C (endpoint: median survival time, dose: 65.0 mg/kg/injection, schedule: Q01DX009 (ip), vehicle: steriod suspending solution): 95 % of control | T/C (endpoint: median survival time, dose: 108.0 mg/kg/injection, schedule: Q01DX001 (ip), vehicle: steriod suspending solution): 120 % of control | T/C (endpoint: median survival time, dose: 180.0 mg/kg/injection, schedule: Q04DX003 (ip), vehicle: steriod suspending solution): 105 % of control

Brc1ccc(/C=C2\C=Cc3ccccc32)cc1
T/C [3]: 98 % of control | T/C [4]: 93 % of control | T/C [5]: 93 % of control

CCCCCCCCC(=O)N1C(C)CCCC1C (centres undefined)
T/C (endpoint: mean survival time, dose: 100.0 mg/kg/injection, schedule: Q04DX002 (ip), vehicle: saline): 111 % of control | T/C (endpoint: mean survival time, dose: 200.0 mg/kg/injection, schedule: Q04DX002 (ip), vehicle: saline): 114 % of control | T/C (endpoint: mean survival time, dose: 400.0 mg/kg/injection, schedule: Q04DX002 (ip), vehicle: saline): 100 % of control

Nc1nc2c(nnn2C2CC(O)C(COP(=O)(O)O)O2)c(=O)[nH]1 (centres undefined)
T/C [6]: 96 % of control | T/C [7]: 91 % of control | T/C [8]: 94 % of control

CC1CC(Cc2cccc3ccccc23)C(=O)O1 (centres undefined)
T/C (endpoint: mean survival time, dose: 37.5 mg/kg/injection, schedule: Q01DX009 (ip), vehicle: saline): 102 % of control | T/C (endpoint: mean survival time, dose: 75.0 mg/kg/injection, schedule: Q01DX001 (ip), vehicle: saline): 97 % of control | T/C (endpoint: mean survival time, dose: 75.0 mg/kg/injection, schedule: Q01DX009 (ip), vehicle: saline): 98 % of control | T/C (endpoint: mean survival time, dose: 75.0 mg/kg/injection, schedule: Q04DX003 (ip), vehicle: saline): 96 % of control | T/C (endpoint: mean survival time, dose: 150.0 mg/kg/injection, schedule: Q01DX001 (ip), vehicle: saline): 97 % of control | T/C (endpoint: mean survival time, dose: 150.0 mg/kg/injection, schedule: Q01DX009 (ip), vehicle: saline): 96 % of control | T/C (endpoint: mean survival time, dose: 150.0 mg/kg/injection, schedule: Q04DX003 (ip), vehicle: saline): 94 % of control | T/C (endpoint: mean survival time, dose: 300.0 mg/kg/injection, schedule: Q01DX001 (ip), vehicle: saline): 98 % of control | T/C (endpoint: mean survival time, dose: 300.0 mg/kg/injection, schedule: Q04DX003 (ip), vehicle: saline): 94 % of control

Cc1ccc(C)c(N(c2ccccc2N)S(C)(=O)=O)c1
T/C (endpoint: mean survival time, dose: 50.0 mg/kg/injection, schedule: Q01DX001 (ip), vehicle: saline): 95 % of control | T/C [9]: 95 % of control | T/C [10]: 101 % of control | T/C [11]: 90 % of control

NC(=O)C1OC(CO)C(O)C1O (centres undefined)
T/C [12]: 105 % of control | T/C [13]: 94 % of control | T/C [14]: 94 % of control

O=C(c1ccc(-c2ccccc2)cc1)C(Br)CCBr (centres undefined)
T/C [12]: 106 % of control | T/C [13]: 93 % of control

COc1ccc(COc2ccc([N+](=O)[O-])cc2)cc1
T/C (endpoint: mean survival time, dose: 50.0 mg/kg/injection, schedule: Q04DX002 (ip), vehicle: saline with Tween-80): 101 % of control | T/C [1]: 104 % of control | T/C [2]: 97 % of control

C#CCN1CCC2=C(C1)c1c(O)cc(C(C)C(C)CCCCC)cc1OC2(C)C (centres undefined)
T/C [6]: 95 % of control | T/C [7]: 92 % of control | T/C [8]: 103 % of control

COC1=C(OC)C(=O)C(Sc2ccc3ccccc3c2)=CC1=O
T/C (endpoint: mean survival time, dose: 6.25 mg/kg/injection, schedule: Q01DX009 (ip), vehicle: saline with Tween-80): 100 % of control | T/C (endpoint: mean survival time, dose: 12.5 mg/kg/injection, schedule: Q01DX009 (ip), vehicle: saline with Tween-80): 94 % of control | T/C (endpoint: mean survival time, dose: 25.0 mg/kg/injection, schedule: Q01DX009 (ip), vehicle: saline with Tween-80): 100 % of control | T/C (endpoint: mean survival time, dose: 50.0 mg/kg/injection, schedule: Q01DX009 (ip), vehicle: saline with Tween-80): 96 % of control | T/C [15]: 94 % of control

CC1([CH2][Hg][I])COCC([CH2][Hg][I])O1 (centres undefined)
T/C (endpoint: mean survival time, dose: 0.78 mg/kg/injection, schedule: Q01DX001 (ip), vehicle: acetone): 105 % of control | T/C (endpoint: mean survival time, dose: 0.78 mg/kg/injection, schedule: Q04DX003 (ip), vehicle: saline): 98 % of control | T/C (endpoint: mean survival time, dose: 1.56 mg/kg/injection, schedule: Q01DX001 (ip), vehicle: acetone): 94 % of control | T/C (endpoint: mean survival time, dose: 1.56 mg/kg/injection, schedule: Q04DX003 (ip), vehicle: saline): 96 % of control | T/C (endpoint: mean survival time, dose: 3.12 mg/kg/injection, schedule: Q01DX001 (ip), vehicle: acetone): 94 % of control | T/C (endpoint: mean survival time, dose: 3.12 mg/kg/injection, schedule: Q04DX003 (ip), vehicle: saline): 98 % of control | T/C (endpoint: mean survival time, dose: 4.6 mg/kg/injection, schedule: Q04DX003 (ip), vehicle: acetone): 93 % of control | T/C (endpoint: mean survival time, dose: 5.75 mg/kg/injection, schedule: Q01DX009 (ip), vehicle: acetone): 107 % of control | T/C (endpoint: mean survival time, dose: 7.0 mg/kg/injection, schedule: Q04DX003 (ip), vehicle: acetone): 96 % of control | T/C (endpoint: mean survival time, dose: 10.5 mg/kg/injection, schedule: Q04DX003 (ip), vehicle: acetone): 95 % of control | T/C (endpoint: mean survival time, dose: 11.5 mg/kg/injection, schedule: Q01DX009 (ip), vehicle: acetone): 107 % of control | T/C [16]: 110 % of control | T/C (endpoint: mean survival time, dose: 23.0 mg/kg/injection, schedule: Q01DX009 (ip), vehicle: acetone): 111 % of control | T/C (endpoint: mean survival time, dose: 23.0 mg/kg/injection, schedule: Q04DX003 (ip), vehicle: saline): 110 % of control

CC(O)(/C=C\c1ccccc1)c1ccccc1 (centres undefined)
T/C [15]: 104 % of control | T/C [12]: 103 % of control | T/C (endpoint: mean survival time, dose: 200.0 mg/kg/injection, schedule: Q01DX009 (ip), vehicle: saline with Tween-80): 102 % of control | T/C [13]: 101 % of control | T/C (endpoint: mean survival time, dose: 400.0 mg/kg/injection, schedule: Q01DX009 (ip), vehicle: saline with Tween-80): 93 % of control | T/C [14]: 108 % of control

CC(C)(C)C(=O)CC(=O)C(C)(C)C.CC(C)(C)C(=O)CC(=O)C(C)(C)C.CC(C)(C)C(=O)CC(=O)C(C)(C)C.[Ho]
T/C [12]: 94 % of control | T/C [13]: 105 % of control | T/C [14]: 95 % of control

CN(C(=O)c1ccccc1C(=O)N(C)c1ccccc1)c1ccccc1
T/C [9]: 109 % of control | T/C [10]: 109 % of control | T/C [11]: 97 % of control

CC(C)n1ncc2c(N)ncnc21
T/C (endpoint: mean survival time, dose: 7.5 mg/kg/injection, schedule: Q01DX001 (ip), vehicle: saline): 107 % of control | T/C (endpoint: mean survival time, dose: 7.5 mg/kg/injection, schedule: Q04DX003 (ip), vehicle: saline): 100 % of control | T/C (endpoint: mean survival time, dose: 15.0 mg/kg/injection, schedule: Q01DX001 (ip), vehicle: saline): 100 % of control | T/C [16]: 97 % of control | T/C (endpoint: mean survival time, dose: 30.0 mg/kg/injection, schedule: Q01DX001 (ip), vehicle: saline): 100 % of control | T/C (endpoint: mean survival time, dose: 30.0 mg/kg/injection, schedule: Q04DX003 (ip), vehicle: saline): 98 % of control

CC(C#N)c1cccc(C(=O)O)c1 (centres undefined)
T/C [3]: 105 % of control | T/C [4]: 105 % of control | T/C [5]: 96 % of control

Nc1ncc(Br)c2ccccc12
T/C [12]: 96 % of control | T/C [13]: 103 % of control

O=C(NC(=S)Nc1cccc(Cl)c1)c1cccc([N+](=O)[O-])c1
T/C (endpoint: mean survival time, dose: 100.0 mg/kg/injection, schedule: Q01DX009 (ip), vehicle: Klucel (hydroxypropylcellulose) (HPC)): 103 % of control | T/C (endpoint: mean survival time, dose: 100.0 mg/kg/injection, schedule: Q04DX003 (ip), vehicle: Klucel (hydroxypropylcellulose) (HPC)): 105 % of control | T/C (endpoint: mean survival time, dose: 200.0 mg/kg/injection, schedule: Q01DX009 (ip), vehicle: Klucel (hydroxypropylcellulose) (HPC)): 100 % of control | T/C (endpoint: mean survival time, dose: 200.0 mg/kg/injection, schedule: Q04DX003 (ip), vehicle: Klucel (hydroxypropylcellulose) (HPC)): 97 % of control | T/C (endpoint: mean survival time, dose: 400.0 mg/kg/injection, schedule: Q01DX009 (ip), vehicle: Klucel (hydroxypropylcellulose) (HPC)): 100 % of control | T/C (endpoint: mean survival time, dose: 400.0 mg/kg/injection, schedule: Q04DX003 (ip), vehicle: Klucel (hydroxypropylcellulose) (HPC)): 95 % of control

Nc1cc(O)c(CCCNC(=O)CBr)c(-c2ccccc2)c1
T/C [6]: 92 % of control | T/C [7]: 105 % of control | T/C [8]: 102 % of control
